Source: patent publication US5444063A, “Enantiomerically pure β-D-dioxolane nucleosides with selective anti-Hepatitis B virus activity” (priority 1992, dated 1995)
Values joined by “and” are separate entries in the source; they are usually repeats but may differ in a detail not shown here. Equal entries are not always repeated. Where two headings read alike, the source gives them in different places.

Experiments:
HBV = experiment: Effect of nucleosides on HBV production in 2.2.15 cells (HBV virion DNA and intracellular HBV DNA); format: cell-based, Hepatitis B virus; details: for HBV virion DNA, day 0 / HBV virion DNA, day 3 / HBV virion DNA, day 6 / HBV virion DNA, day 9: individual culture; for HBV virion DNA, day 0, mean / HBV virion DNA, day 3, mean / HBV virion DNA, day 6, mean / HBV virion DNA, day 9, mean / Intracellular HBV DNA on Day 10, Mono, mean / Intracellular HBV DNA on Day 10, RI, mean: mean of 4 cultures; for inhibition at 1 µM / inhibition: Hepatitis B virus
Procedure: The ability of β-D-dioxolane-nucleosides to inhibit HBV can be measured by various experimental techniques. The assay used herein to evaluate the ability of the disclosed compounds to inhibit the replication of HBV is described in detail in Korba and Gerin, Antiviral Res. 19:55-70 (1992). […] The other compounds disclosed herein are evaluated similarly.
The antiviral evaluations were performed on two separate passages of cells, two cultures per passage (4 cultures total). All wells, in all plates, were seeded at the same density and at the same time.
Due to the inherent variations in the levels of both intracellular and extracellular HBV DNA, only depressions greater than 3.0-fold (for HBV virion DNA) or 2.5-fold (for HBV DNA replication intermediates) from the average levels for these HBV DNA forms in untreated cells are generally considered to be statistically significant [P<0.05] (Korba and Gerin, Antiviral Res. 19: 55-70, 1992). The levels of integrated HBV DNA in each cellular DNA preparation (which remain constant on a per cell basis in these experiments) were used to calculate the levels of intracellular HBV DNA forms, thereby eliminating technical variations inherent in the blot hybridization assays.
The test compounds were used in the form of 40 mM stock solutions in DMSO (frozen on dry ice). Daily aliquots of the test samples were made and frozen at -20° C. so that each individual aliquot would be subjected to a single freeze-thaw cycle. […] The compounds were tested for toxicity at concentrations up to 300 μM.

[1] = Toxicity analysis of test compounds in 2.2.15 cells (neutral red dye uptake); format: cell-based; details: human
Procedure: Toxicity analyses were performed in order to assess whether any observed antiviral effects are due to a general effect on cell viability. The method used was based on the uptake of neutral red dye, a standard and widely used assay for cell viability in a variety of virus-host systems, including HSV (herpes simplex virus) and HIV. Details of the procedure are provided in the toxicity table legends.
The test compounds were used in the form of 40 mM stock solutions in DMSO (frozen on dry ice). Daily aliquots of the test samples were made and frozen at -20° C. so that each individual aliquot would be subjected to a single freeze-thaw cycle. The daily test aliquots were thawed, suspended into culture medium at room temperature and immediately added to the cell cultures° The compounds were tested at 0.0 and 1 μM for antiviral activity. The compounds were tested for toxicity at concentrations up to 300 μM.
Toxicity analyses were performed in 96-well flat bottomed tissue culture plates. Cells for the toxicity analyses were cultured and treated with test compounds with the same schedule as used for the antiviral evaluations. Each compound was tested at 4 concentrations, each in triplicate cultures. Uptake of neutral red dye was used to determine the relative level of toxicity. The absorbance of internalized dye at […] (A510) was used for the quantitative analysis. Values are presented as a percentage of the average A510 values (±standard deviations) in 9 separate cultures of untreated cells maintained on the same 96-well plate as the test compounds.

[2] = 0.1 μM, listed as (-)- -2,6-dioxolane-G
[3] = 1.0 μM ("1.0 M" printed for the 2,6-DiNH2 compound), listed as (-)- -2,6-dioxolane-G
[4] = 1.0 μM ("1.0 M" printed for the 2,6-DiNH2 compound)
[5] = 0 h, 1.0 μM ("1.0 M" printed for the 2,6-DiNH2 compound), read-out: % inhibition, HBV virion DNA, day 0
[6] = 0 h, read-out: % inhibition, HBV virion DNA, day 0
[7] = 72 h, 1.0 μM ("1.0 M" printed for the 2,6-DiNH2 compound), read-out: % inhibition, HBV virion DNA, day 3
[8] = 72 h, read-out: % inhibition, HBV virion DNA, day 3
[9] = 144 h, 1.0 μM ("1.0 M" printed for the 2,6-DiNH2 compound), read-out: % inhibition, HBV virion DNA, day 6
[10] = 144 h, read-out: % inhibition, HBV virion DNA, day 6
[11] = 216 h, 1.0 μM ("1.0 M" printed for the 2,6-DiNH2 compound), read-out: % inhibition, HBV virion DNA, day 9
[12] = 216 h, read-out: % inhibition, HBV virion DNA, day 9
[13] = 240 h, 1.0 μM ("1.0 M" printed for the 2,6-DiNH2 compound), read-out: % inhibition, intracellular HBV DNA Mono, Day 10
[14] = 240 h, 1.0 μM ("1.0 M" printed for the 2,6-DiNH2 compound), read-out: % inhibition, intracellular HBV DNA RI, Day 10
[15] = 240 h, read-out: % inhibition, intracellular HBV DNA Mono, Day 10
[16] = 240 h, read-out: % inhibition, intracellular HBV DNA RI, Day 10
[17] = 0.1 μM, listed as (-)- -2,6-diNH2-purine-dioxolane
[18] = 1.0 μM ("1.0 M" printed for the 2,6-DiNH2 compound), listed as (-)- -2,6-DiNH2-purine-dioxolane

Structure (SMILES)	HBV virion DNA, day 0, mean (HBV; 0.1 μM)	HBV virion DNA, day 3, mean (HBV; 0.1 μM)	HBV virion DNA, day 6, mean (HBV; 0.1 μM)	HBV virion DNA, day 9, mean (HBV; 0.1 μM)	Intracellular HBV DNA on Day 10, Mono, mean (HBV; 0.1 μM)	Intracellular HBV DNA on Day 10, RI, mean (HBV; 0.1 μM)	HBV virion DNA, day 0, mean (HBV; [4])	HBV virion DNA, day 3, mean (HBV; [4])	HBV virion DNA, day 6, mean (HBV; [4])	HBV virion DNA, day 9, mean (HBV; [4])	Intracellular HBV DNA on Day 10, Mono, mean (HBV; [4])	Intracellular HBV DNA on Day 10, RI, mean (HBV; [4])	inhibition at 1 µM (HBV; [5]) [%]	inhibition (HBV; [6]) [%]	inhibition at 1 µM (HBV; [7]) [%]	inhibition (HBV; [8]) [%]	inhibition at 1 µM (HBV; [9]) [%]	inhibition (HBV; [10]) [%]	inhibition at 1 µM (HBV; [11]) [%]	inhibition (HBV; [12]) [%]	also measured
Nc1nc2c(ncn2[C@H]2CO[C@@H](CO)O2)c(=O)[nH]1 [Dioxolane-G, (-)-(2R,4R)-9-[(2-hydroxymethyl)-1,3-dioxolan-4-yl]guanine]	62.75 pg/ml of cultured medium	68.25 pg/ml of cultured medium	70.25 pg/ml of cultured medium	13.75 pg/ml of cultured medium	2.35 pg/μM of cellular DNA	24.00 pg/μM of cellular DNA	62.25 pg/ml of cultured medium	66.75 pg/ml of cultured medium	22.25 pg/ml of cultured medium	2.75 pg/ml of cultured medium	1.85 pg/μM of cellular DNA	4.75 pg/μM of cellular DNA	1.19	0.4	-1.54	-5.41	71	8.47	96.3	81.5	HBV virion DNA, day 0 (HBV; [2]): 51 pg/ml of cultured medium and 59 pg/ml of cultured medium and 74 pg/ml of cultured medium and 67 pg/ml of cultured medium; HBV virion DNA, day 3 (HBV; [2]): 77 pg/ml of cultured medium and 62 pg/ml of cultured medium and 73 pg/ml of cultured medium and 61 pg/ml of cultured medium; HBV virion DNA, day 6 (HBV; [2]): 60 pg/ml of cultured medium and 70 pg/ml of cultured medium and 69 pg/ml of cultured medium and 82 pg/ml of cultured medium; HBV virion DNA, day 9 (HBV; [2]): 18 pg/ml of cultured medium and 12 pg/ml of cultured medium and 14 pg/ml of cultured medium and 11 pg/ml of cultured medium; HBV virion DNA, day 0 (HBV; [3]): 70 pg/ml of cultured medium and 50 pg/ml of cultured medium and 56 pg/ml of cultured medium and 73 pg/ml of cultured medium; HBV virion DNA, day 3 (HBV; [3]): 86 pg/ml of cultured medium and 59 pg/ml of cultured medium and 56 pg/ml of cultured medium and 62 pg/ml of cultured medium; HBV virion DNA, day 6 (HBV; [3]): 22 pg/ml of cultured medium and 24 pg/ml of cultured medium and 23 pg/ml of cultured medium and 20 pg/ml of cultured medium; HBV virion DNA, day 9 (HBV; 1.0 μM ("1.0 M" printed for the 2,6-DiNH2 compound), zero = undetectable, listed as (-)- -2,6-dioxolane-G): 2 pg/ml of cultured medium and 4 pg/ml of cultured medium and 3 pg/ml of cultured medium; inhibition at 1 µM (HBV; [13]): 26.7%; inhibition at 1 µM (HBV; [14]): 93.5%; inhibition (HBV; [15]): 6.93%; inhibition (HBV; [16]): 67.3%; viability at 10 µM [1]: 100 ± 3%; viability at 30 µM [1]: 101 ± 2%; viability at 100 µM [1]: 88 ± 3%; viability at 300 µM [1]: 56 ± 3%
Nc1nc(N)c2ncn([C@H]3CO[C@@H](CO)O3)c2n1 [DAPD, (-)-(2R,4R)-2-amino-9-[(2-hydroxymethyl)-1,3-dioxolan-4-yl]adenine]	62.75 pg/ml of cultured medium	61.75 pg/ml of cultured medium	30.75 pg/ml of cultured medium	7.00 pg/ml of cultured medium	2.35 pg/μM of cellular DNA	12.00 pg/μM of cellular DNA	67.75 pg/ml of cultured medium	50.75 pg/ml of cultured medium	12.00 pg/ml of cultured medium	0.25 pg/ml of cultured medium	1.15 pg/μM of cellular DNA	2.25 pg/μM of cellular DNA	-7.54	0.4	21.6	4.63	84.4	59.9	99.7	90.6	HBV virion DNA, day 0 (HBV; 0.1 μM): 77 pg/ml of cultured medium; HBV virion DNA, day 0 (HBV; [17]): 52 pg/ml of cultured medium and 58 pg/ml of cultured medium and 64 pg/ml of cultured medium; HBV virion DNA, day 3 (HBV; [17]): 67 pg/ml of cultured medium and 59 pg/ml of cultured medium and 62 pg/ml of cultured medium; HBV virion DNA, day 6 (HBV; [17]): 28 pg/ml of cultured medium and 34 pg/ml of cultured medium and 35 pg/ml of cultured medium and 26 pg/ml of cultured medium; HBV virion DNA, day 9 (HBV; [17]): 5 pg/ml of cultured medium and 6 pg/ml of cultured medium and 9 pg/ml of cultured medium and 8 pg/ml of cultured medium; HBV virion DNA, day 0 (HBV; [18]): 66 pg/ml of cultured medium and 70 pg/ml of cultured medium and 74 pg/ml of cultured medium and 61 pg/ml of cultured medium; HBV virion DNA, day 3 (HBV; [18]): 59 pg/ml of cultured medium and 45 pg/ml of cultured medium and 56 pg/ml of cultured medium and 43 pg/ml of cultured medium; HBV virion DNA, day 6 (HBV; [18]): 12 pg/ml of cultured medium and 10 pg/ml of cultured medium and 15 pg/ml of cultured medium and 11 pg/ml of cultured medium; HBV virion DNA, day 9 (HBV; 1.0 μM ("1.0 M" printed for the 2,6-DiNH2 compound), zero = undetectable, listed as (-)- -2,6-DiNH2-purine-dioxolane): 0 pg/ml of cultured medium and 1 pg/ml of cultured medium; inhibition at 1 µM (HBV; [13]): 54.5%; inhibition at 1 µM (HBV; [14]): 96.9%; inhibition (HBV; [15]): 6.93%; inhibition (HBV; [16]): 83.7%; viability at 10 µM [1]: 99 ± 1%; viability at 30 µM [1]: 99 ± 3%; viability at 100 µM [1]: 88 ± 1%; viability at 300 µM [1]: 49 ± 3%
